# Source: US11236102B2, “Oxabicycloheptane prodrugs” (Lixte Biotechnology, Inc., priority 2015, dated 2022)
# Where “and” joins values, the source holds several entries; their conditions need not be identical. Equal values may be shown once. Read-outs that look alike come from different tables or passages of the source.
# Assay: Pharmacokinetic study of 151 (iv, oral) in SD rats: 151 and 100 in plasma
# Type: in vivo
# Conditions: for AUC(0-t): read-out: AUC0-t of 151; for AUC(0-inf): read-out: AUC0-∞ of 151
# Protocol: The absolute bioavailability was evaluated.
# To each sample, 160 μL of acetonitrile were added.
# The mass spectrometer was operated in the positive mode.
# Quantification was achieved by the external standard method.
# Calibration Curve for Plasma Samples
# LB100 concentrations of the LB151 plasma samples were also measured and pharmacokinetic parameters were calculated.
# [1] = 151 IV 1.0 mg/kg, SD rats, individual rats, 1 mg/kg
# [2] = male, Sprague-Dawley, rat, in vivo, iv, 1 mg/kg, plasma, 151 IV 1.0 mg/kg, SD rats, individual rats
# [3] = male, Sprague-Dawley, rat, in vivo, iv, 1 mg/kg, plasma, 151 IV 1.0 mg/kg, SD rats, mean
# [4] = male, Sprague-Dawley, rat, in vivo, po, 10 mg/kg, plasma, 151 PO 10 mg/kg, SD rats, individual rats
# [5] = male, Sprague-Dawley, rat, in vivo, po, 10 mg/kg, plasma, 151 PO 10 mg/kg, SD rats, mean
# [6] = plasma, 151 IV 1.0 mg/kg, SD rats, individual rats, 1 mg/kg
# [7] = plasma, 151 PO 10 mg/kg, SD rats, individual rats, 10 mg/kg
compound,measurement,setting,value
COC(=O)C1C2CCC(O2)C1C(=O)N1CCN(C)CC1 (stereo not shown) [Compound 151],151 plasma concentration,"151 IV 1.0 mg/kg, SD rats, 0.083 h, individual rats, 1 mg/kg",1301 ng/mL
same,151 plasma concentration,"151 IV 1.0 mg/kg, SD rats, 0.250 h, individual rats, 1 mg/kg",949 ng/mL
same,151 plasma concentration,"151 IV 1.0 mg/kg, SD rats, 0.50 h, individual rats, 1 mg/kg",607 ng/mL
same,151 plasma concentration,"151 IV 1.0 mg/kg, SD rats, 1.0 h, individual rats, 1 mg/kg",314 ng/mL
same,151 plasma concentration,"151 IV 1.0 mg/kg, SD rats, 2.0 h, individual rats, 1 mg/kg",103 ng/mL
same,151 plasma concentration,"151 IV 1.0 mg/kg, SD rats, 3.0 h, individual rats, 1 mg/kg",28.1 ng/mL
same,151 plasma concentration,"151 IV 1.0 mg/kg, SD rats, 5.0 h, individual rats, 1 mg/kg",9.75 ng/mL and 3.63 ng/mL
same,151 plasma concentration,"151 IV 1.0 mg/kg, SD rats, 7.0 h, individual rats, 1 mg/kg",12.2 ng/mL and 1.83 ng/mL
same,151 plasma concentration,"151 IV 1.0 mg/kg, SD rats, 9.0 h, individual rats, 1 mg/kg",BLQ
same,151 plasma concentration,"151 IV 1.0 mg/kg, SD rats, 24 h, individual rats",BLQ
same,CL of 151,[1],15.9 mL/min/kg
same,Vss of 151,[1],0.775 L/kg
same,F of 151,"151 PO 10 mg/kg vs IV 1.0 mg/kg, SD rats, mean, based on AUC0-∞",54.6%
same,151 plasma concentration,"151 PO 10 mg/kg, SD rats, 0.25 h, individual rats, 10 mg/kg",2029 ng/mL and 2731 ng/mL
same,151 plasma concentration,"151 PO 10 mg/kg, SD rats, 0.50 h, individual rats, 10 mg/kg",3934 ng/mL and 3343 ng/mL
same,151 plasma concentration,"151 PO 10 mg/kg, SD rats, 1.0 h, individual rats, 10 mg/kg",2581 ng/mL and 2538 ng/mL
same,151 plasma concentration,"151 PO 10 mg/kg, SD rats, 2.0 h, individual rats, 10 mg/kg",1237 ng/mL and 1582 ng/mL
same,151 plasma concentration,"151 PO 10 mg/kg, SD rats, 3.0 h, individual rats, 10 mg/kg",660 ng/mL and 794 ng/mL
same,151 plasma concentration,"151 PO 10 mg/kg, SD rats, 5.0 h, individual rats, 10 mg/kg",99.4 ng/mL and 192 ng/mL
same,151 plasma concentration,"151 PO 10 mg/kg, SD rats, 7.0 h, individual rats, 10 mg/kg",42.6 ng/mL and 20.7 ng/mL and 68.0 ng/mL
same,151 plasma concentration,"151 PO 10 mg/kg, SD rats, 9.0 h, individual rats, 10 mg/kg",38.2 ng/mL and 66.1 ng/mL
same,151 plasma concentration,"151 PO 10 mg/kg, SD rats, 24 h, individual rats",BLQ
same,time of peak plasma concentration,"151 oral 10 mg/kg, SD rats (n=3)",0.5 h
same,concentration at 0.083 h,"male, Sprague-Dawley, rat, in vivo, iv, 1 mg/kg, 151 IV 1.0 mg/kg, SD rats, 0.083 h, individual rats",1680 ng/mL
same,concentration at 0.083 h,"male, Sprague-Dawley, rat, in vivo, iv, 1 mg/kg, 151 IV 1.0 mg/kg, SD rats, 0.083 h, mean",1490 ng/mL
same,concentration at 0.25 h,"male, Sprague-Dawley, rat, in vivo, iv, 1 mg/kg, 151 IV 1.0 mg/kg, SD rats, 0.250 h, individual rats",1160 ng/mL
same,concentration at 0.25 h,"male, Sprague-Dawley, rat, in vivo, iv, 1 mg/kg, 151 IV 1.0 mg/kg, SD rats, 0.250 h, mean",1060 ng/mL
same,concentration at 0.5 h,"male, Sprague-Dawley, rat, in vivo, iv, 1 mg/kg, 151 IV 1.0 mg/kg, SD rats, 0.50 h, individual rats",760 ng/mL
same,concentration at 0.5 h,"male, Sprague-Dawley, rat, in vivo, iv, 1 mg/kg, 151 IV 1.0 mg/kg, SD rats, 0.50 h, mean",683 ng/mL
same,concentration at 1 h,"male, Sprague-Dawley, rat, in vivo, iv, 1 mg/kg, 151 IV 1.0 mg/kg, SD rats, 1.0 h, individual rats",381 ng/mL
same,concentration at 1 h,"male, Sprague-Dawley, rat, in vivo, iv, 1 mg/kg, 151 IV 1.0 mg/kg, SD rats, 1.0 h, mean",348 ng/mL
same,concentration at 2 h,"male, Sprague-Dawley, rat, in vivo, iv, 1 mg/kg, 151 IV 1.0 mg/kg, SD rats, 2.0 h, individual rats",95.8 ng/mL
same,concentration at 2 h,"male, Sprague-Dawley, rat, in vivo, iv, 1 mg/kg, 151 IV 1.0 mg/kg, SD rats, 2.0 h, mean",99.6 ng/mL
same,concentration at 3 h,"male, Sprague-Dawley, rat, in vivo, iv, 1 mg/kg, 151 IV 1.0 mg/kg, SD rats, 3.0 h, individual rats",39.6 ng/mL
same,concentration at 3 h,"male, Sprague-Dawley, rat, in vivo, iv, 1 mg/kg, 151 IV 1.0 mg/kg, SD rats, 3.0 h, mean",33.8 ng/mL
same,concentration at 5 h,"male, Sprague-Dawley, rat, in vivo, iv, 1 mg/kg, 151 IV 1.0 mg/kg, SD rats, 5.0 h, mean",6.69 ng/mL
same,concentration at 7 h,"male, Sprague-Dawley, rat, in vivo, iv, 1 mg/kg, 151 IV 1.0 mg/kg, SD rats, 7.0 h, mean",7.02 ng/mL
same,concentration at 9 h,"male, Sprague-Dawley, rat, in vivo, iv, 1 mg/kg, 151 IV 1.0 mg/kg, SD rats, 9.0 h, individual rats",2.01 ng/mL
same,concentration at 9 h,"male, Sprague-Dawley, rat, in vivo, iv, 1 mg/kg, 151 IV 1.0 mg/kg, SD rats, 9.0 h, mean",1 ng/mL
same,clearance,"male, Sprague-Dawley, rat, in vivo, iv, 1 mg/kg, 151 IV 1.0 mg/kg, SD rats, individual rats, read-out: CL of 151 (converted)",12.7 mL/min/kg
same,Vd,"male, Sprague-Dawley, rat, in vivo, iv, 1 mg/kg, 151 IV 1.0 mg/kg, SD rats, individual rats, read-out: Vss of 151",0.696 L/kg
same,clearance,"male, Sprague-Dawley, rat, in vivo, iv, 1 mg/kg, 151 IV 1.0 mg/kg, SD rats, mean, read-out: CL of 151 (converted)",14.3 mL/min/kg
same,Vd,"male, Sprague-Dawley, rat, in vivo, iv, 1 mg/kg, 151 IV 1.0 mg/kg, SD rats, mean, read-out: Vss of 151",0.736 L/kg
same,half-life,"male, Sprague-Dawley, rat, in vivo, iv, 1 mg/kg, 151 iv 1.0 mg/kg (n=2), read-out: elimination half-life (converted)",0.89 h
same,clearance,"male, Sprague-Dawley, rat, in vivo, iv, 1 mg/kg, 151 iv 1.0 mg/kg (n=2), read-out: mean clearance from rat plasma (converted)",14.3 mL/min/kg
same,Vd,"male, Sprague-Dawley, rat, in vivo, iv, 1 mg/kg, 151 iv 1.0 mg/kg (n=2), read-out: volume of distribution at steady state",0.736 L/kg
same,MRT,[2],0.91 h
same,AUC(0-t),[2],1290 ng·h/mL
same,AUC(0-inf),[2],1310 ng·h/mL
same,half-life,"male, Sprague-Dawley, rat, in vivo, iv, 1 mg/kg, plasma, 151 IV 1.0 mg/kg, SD rats, individual rats, read-out: T1/2 of 151 (converted)",0.91 h
same,MRT,[3],0.86 h
same,AUC(0-t),[3],1170 ng·h/mL
same,AUC(0-inf),[3],1180 ng·h/mL
same,half-life,"male, Sprague-Dawley, rat, in vivo, iv, 1 mg/kg, plasma, 151 IV 1.0 mg/kg, SD rats, mean, read-out: T1/2 of 151 (converted)",0.89 h
same,concentration at 0.25 h,"male, Sprague-Dawley, rat, in vivo, po, 10 mg/kg, 151 PO 10 mg/kg, SD rats, 0.25 h, individual rats",2230 ng/mL
same,concentration at 0.25 h,"male, Sprague-Dawley, rat, in vivo, po, 10 mg/kg, 151 PO 10 mg/kg, SD rats, 0.25 h, mean",2330 ng/mL
same,concentration at 0.5 h,"male, Sprague-Dawley, rat, in vivo, po, 10 mg/kg, 151 PO 10 mg/kg, SD rats, 0.50 h, individual rats",2450 ng/mL
same,concentration at 0.5 h,"male, Sprague-Dawley, rat, in vivo, po, 10 mg/kg, 151 PO 10 mg/kg, SD rats, 0.50 h, mean",3240 ng/mL
same,concentration at 1 h,"male, Sprague-Dawley, rat, in vivo, po, 10 mg/kg, 151 PO 10 mg/kg, SD rats, 1.0 h, individual rats",2200 ng/mL
same,concentration at 1 h,"male, Sprague-Dawley, rat, in vivo, po, 10 mg/kg, 151 PO 10 mg/kg, SD rats, 1.0 h, mean",2440 ng/mL
same,concentration at 2 h,"male, Sprague-Dawley, rat, in vivo, po, 10 mg/kg, 151 PO 10 mg/kg, SD rats, 2.0 h, individual rats",1100 ng/mL
same,concentration at 2 h,"male, Sprague-Dawley, rat, in vivo, po, 10 mg/kg, 151 PO 10 mg/kg, SD rats, 2.0 h, mean",1310 ng/mL
same,concentration at 3 h,"male, Sprague-Dawley, rat, in vivo, po, 10 mg/kg, 151 PO 10 mg/kg, SD rats, 3.0 h, individual rats",521 ng/mL
same,concentration at 3 h,"male, Sprague-Dawley, rat, in vivo, po, 10 mg/kg, 151 PO 10 mg/kg, SD rats, 3.0 h, mean",658 ng/mL
same,concentration at 5 h,"male, Sprague-Dawley, rat, in vivo, po, 10 mg/kg, 151 PO 10 mg/kg, SD rats, 5.0 h, individual rats",125 ng/mL
same,concentration at 5 h,"male, Sprague-Dawley, rat, in vivo, po, 10 mg/kg, 151 PO 10 mg/kg, SD rats, 5.0 h, mean",139 ng/mL
same,concentration at 7 h,"male, Sprague-Dawley, rat, in vivo, po, 10 mg/kg, 151 PO 10 mg/kg, SD rats, 7.0 h, mean",43.8 ng/mL
same,concentration at 9 h,"male, Sprague-Dawley, rat, in vivo, po, 10 mg/kg, 151 PO 10 mg/kg, SD rats, 9.0 h, individual rats",52.1 ng/mL
same,concentration at 9 h,"male, Sprague-Dawley, rat, in vivo, po, 10 mg/kg, 151 PO 10 mg/kg, SD rats, 9.0 h, mean",52.1 ng/mL
same,half-life,"male, Sprague-Dawley, rat, in vivo, po, 10 mg/kg, 151 oral 10 mg/kg, SD rats (n=3), read-out: mean half-life (converted)",1.26 h
same,Cmax,[4],2450 ng/mL
same,MRT,[4],1.86 h
same,AUC(0-t),[4],5400 ng·h/mL
same,AUC(0-inf),[4],5500 ng·h/mL
same,half-life,"male, Sprague-Dawley, rat, in vivo, po, 10 mg/kg, plasma, 151 PO 10 mg/kg, SD rats, individual rats, read-out: T1/2 of 151 (converted)",1.33 h
same,Cmax,[5],3240 ng/mL
same,MRT,[5],1.81 h
same,AUC(0-t),[5],6340 ng·h/mL
same,AUC(0-inf),[5],6440 ng·h/mL
same,half-life,"male, Sprague-Dawley, rat, in vivo, po, 10 mg/kg, plasma, 151 PO 10 mg/kg, SD rats, mean, read-out: T1/2 of 151 (converted)",1.26 h
same,bioavailability,"male, Sprague-Dawley, rat, in vivo, 151 oral 10 mg/kg, based on AUC0-∞, read-out: absolute bioavailability (F)",54.6%
same,Tmax,"male, Sprague-Dawley, rat, in vivo, plasma, 151 PO 10 mg/kg, SD rats, mean",0.5 h
same,AUC0-t of 151,[6],1045 ng·h/mL
same,AUC0-∞ of 151,[6],1047 ng·h/mL
same,MRT of 151,[6],0.81 h
same,T1/2 of 151,[6],0.87 h
same,AUC0-t of 151,[7],6423 ng·h/mL and 7199 ng·h/mL
same,AUC0-∞ of 151,[7],6484 ng·h/mL and 7328 ng·h/mL
same,Cmax of 151,[7],3934 ng/mL and 3343 ng/mL
same,MRT of 151,[7],1.62 h and 1.95 h
same,T1/2 of 151,[7],1.10 h and 1.35 h
